Like-named read-outs stand apart in the source and are kept apart here.
Key:
H9 lymphocytes = assay: Cytotoxicity by trypan blue dye exclusion; assay type: cell-based; parameters: dose or concentration left out as unconfirmed
Text: Cytotoxicity of oligonucleotides was studied by culturing the cells with increasing concentration of oligonucleotide and by the trypan blue dye exclusion method.

HIV-1 = assay: Anti-HIV activity: p24 expression by ELISA in HIV-1 infected H9 lymphocytes; assay type: cell-based; parameters: Inhibition of p24 (%): dose or concentration left out as unconfirmed; settings: for Inhibition of p24 (%): three days; for IC50: Human immunodeficiency virus 1, Lymphocyte, p24 expression, positive control
Procedure: H9 lymphocytes were infected with HIV-1 virions (≡0.01 - 0.1 TCID50/cell) for one hour at 37°C. After one hour, unadsorbed virions were washed and the infected cells were divided among wells of 24 well plates. To the infected cells, an appropriate concentration (from stock solution) of oligonucleotide was added to obtain the required concentration in 2 ml medium. In a positive control experiment ddC or AZT was added. The cells were then cultured for three days. At the end of three days, supernatant from the infected culture was collected and measured for p24 expression by ELISA. The level of expression of p24 was compared between oligonucleotide treated and untreated (no drug) infected cells.

[1] = Experiment 1, concentration 0.04
[2] = Experiment 1, concentration 0.08
[3] = Experiment 1, concentration 0.2
[4] = Experiment 1, concentration .0016
[5] = Experiment 2, concentration 0.0016
[6] = Experiment 2, concentration 0.008
[7] = Experiment 2, concentration 0.04
[8] = Experiment 2, concentration 0.2

SMILES: Cc1cn([C@H]2C[C@H](N=[N+]=[N-])[C@@H](CO)O2)c(=O)[nH]c1=O [AZT]
- % Cell Survival (H9 lymphocytes; [1]): 98%
- % Cell Survival (H9 lymphocytes; [2]): 104%
- % Cell Survival (H9 lymphocytes; [3]): 95%
- % Cell Survival (H9 lymphocytes; [4]): 108%
- % Cell Survival (H9 lymphocytes; [5]): 103%
- % Cell Survival (H9 lymphocytes; [6]): 101%
- % Cell Survival (H9 lymphocytes; [7]): 98%
- % Cell Survival (H9 lymphocytes; [8]): 93%
- Inhibition of p24 (%) (HIV-1; [1]): 73%
- Inhibition of p24 (%) (HIV-1; [2]): 44%
- Inhibition of p24 (%) (HIV-1; [3]): 90%
- Inhibition of p24 (%) (HIV-1; [4]): 6%
- Inhibition of p24 (%) (HIV-1; [5]): 6%
- Inhibition of p24 (%) (HIV-1; [6]): 5%
- Inhibition of p24 (%) (HIV-1; [7]): 65%
- Inhibition of p24 (%) (HIV-1; [8]): 89%
- IC50 (HIV-1; Experiment 1, read-out: IC50): 37 nM
- IC50 (HIV-1; Experiment 2): 100 nM
